The subject of data set [1] is Rattus norvegicus. As to the kind of experiment: Distribution of tissue Radioactivity following Intravenous injection into castrated male rat and 5-alpha-DHT was reported. As to conditions: in vivo. In kind it is ADME, organism-based.
Data set [2] has as its system Rattus norvegicus. The data set is described as follows: Distribution of tissue Radioactivity following Intravenous injection into castrated male rat prostate/blood. To be noted: other tissue. Type of data set: ADME, organism-based.
The target of data set [3] is T1, Androgen receptor (Homo sapiens) (UniProt P10275).
T1 sequence (whole entry): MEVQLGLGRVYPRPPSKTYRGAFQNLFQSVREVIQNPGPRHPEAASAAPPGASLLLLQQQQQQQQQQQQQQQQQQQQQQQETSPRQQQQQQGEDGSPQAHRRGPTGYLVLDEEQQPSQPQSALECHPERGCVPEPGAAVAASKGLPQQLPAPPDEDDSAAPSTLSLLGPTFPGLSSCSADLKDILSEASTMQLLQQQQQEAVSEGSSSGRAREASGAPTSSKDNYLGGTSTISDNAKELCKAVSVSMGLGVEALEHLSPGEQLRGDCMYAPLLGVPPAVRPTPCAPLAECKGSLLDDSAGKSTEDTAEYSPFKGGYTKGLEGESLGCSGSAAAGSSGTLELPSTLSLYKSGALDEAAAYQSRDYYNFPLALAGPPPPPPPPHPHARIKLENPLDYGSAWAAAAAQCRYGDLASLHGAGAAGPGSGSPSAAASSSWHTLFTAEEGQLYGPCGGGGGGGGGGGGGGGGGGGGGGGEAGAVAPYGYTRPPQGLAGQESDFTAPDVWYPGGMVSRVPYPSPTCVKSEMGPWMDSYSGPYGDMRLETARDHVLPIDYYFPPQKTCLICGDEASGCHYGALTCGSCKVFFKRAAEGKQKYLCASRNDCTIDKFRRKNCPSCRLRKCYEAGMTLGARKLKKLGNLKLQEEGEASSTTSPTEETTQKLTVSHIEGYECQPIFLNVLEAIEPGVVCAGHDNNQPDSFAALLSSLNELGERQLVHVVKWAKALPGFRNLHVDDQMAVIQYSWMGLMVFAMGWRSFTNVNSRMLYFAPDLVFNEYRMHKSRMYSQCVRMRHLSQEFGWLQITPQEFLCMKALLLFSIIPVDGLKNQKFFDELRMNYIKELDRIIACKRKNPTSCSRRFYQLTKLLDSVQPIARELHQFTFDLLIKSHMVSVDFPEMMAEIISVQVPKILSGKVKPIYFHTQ
As to conditions: CV-1.
Description: Relative stimulatory activity compared to 5-alpha-DHT in CV-1 cells expressing androgen receptor

As to `CC12CC[C@H]3[C@@H]([C@H](I)CC4CC(=O)CCC43C)[C@@H]1CCC2O` (stereo partly specified), the Biodistribution stood at 0.94% in the data set with Rattus norvegicus [1] and 1.34% with Rattus norvegicus [2]. Further, in data set [3], the RSA was determined as 20.

In data set [3], `CC12CC[C@H]3[C@@H]([C@H](F)CC4CC(=O)CCC43C)[C@@H]1CCC2O` (stereo partly specified) came in with an RSA of 60.

Compound `CC12CC[C@@H]3C4CCC(=O)CC4C[C@@H](I)[C@H]3[C@@H]1CCC2O` (stereo partly specified) had an RSA in data set [3] of 13.

Take `C[C@]12CC[C@@H]3C4CCC(=O)CC4C[C@@H](F)[C@H]3[C@@H]1CC[C@@H]2O` (stereo partly specified): in data set [3], the RSA came to 44.

For the origin of these results see ChEMBL document CHEMBL1132232, “7alpha-Iodo and 7alpha-fluoro steroids as androgen receptor-mediated imaging agents” (J Med Chem, 1999).
